Data from the supplement of paper PMC10307832.

Assays:
Test in all cases: relative viability (nuclei count vs DMSO), 5 days (fraction); higher = more cells survive
Decitabine + Luminespib = compound: Nc1ncn([C@H]2C[C@H](O)[C@@H](CO)O2)c(=O)n1 [Decitabine] + CCNC(=O)c1noc(-c2cc(C(C)C)c(O)cc2O)c1-c1ccc(CN2CCOCC2)cc1 [Luminespib] (partner 0.01 µM)
Outline: (§1)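 Relative viability divides the nuclei count in treated wells by that in vehicle wells. Lung cancer cell lines were seeded in 1536-well plates, dosed by pin tool the next day, and fixed and stained after 5 days in one step with final 0.05% Triton X-100, 1% formaldehyde and 1 ug/ml Hoechst. Dosing was a single drug or a fixed anchor-drug dose plus five library-drug doses (not always all listed) in √10 steps, and values are medians of duplicate plates imaged at 4×.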

[1] = compound: O=C(C[C@H]1NCCC[C@@H]1O)Cn1cnc2cc(Br)c(Cl)cc2c1=O (racemic) [Halofuginone] + Cc1cc(Nc2cc(N3CCN(C)CC3)nc(Sc3ccc(NC(=O)C4CC4)cc3)n2)n[nH]1 [Tozasertib] (partner 0.1 µM)
Outline: as §1

Decitabine + Vorinostat = compound: Nc1ncn([C@H]2C[C@H](O)[C@@H](CO)O2)c(=O)n1 [Decitabine] + O=C(CCCCCCC(=O)Nc1ccccc1)NO [Vorinostat] (partner 1 µM)
Outline: as §1

Cediranib + Decitabine = compound: COc1cc2c(Oc3ccc4[nH]c(C)cc4c3F)ncnc2cc1OCCCN1CCCC1 [Cediranib] + Nc1ncn([C@H]2C[C@H](O)[C@@H](CO)O2)c(=O)n1 [Decitabine] (partner 2 µM)
Outline: as §1

Cell Line: UMC-11
- relative viability (Decitabine + Luminespib; first compound 0.04 µM): 0.935
- relative viability (Decitabine + Luminespib; first compound 0.1265 µM): 0.773
- relative viability (Decitabine + Luminespib; first compound 0.4 µM): 0.559
- relative viability (Decitabine + Luminespib; first compound 1.265 µM): 0.382
- relative viability (Decitabine + Luminespib; first compound 4 µM): 0.372
- relative viability ([1]; first compound 0.001 µM): 0.219
- relative viability ([1]; first compound 0.003162 µM): 0.196
- relative viability ([1]; first compound 0.01 µM): 0.189
- relative viability ([1]; first compound 0.03162 µM): 0.205
- relative viability ([1]; first compound 0.1 µM): 0.209
- relative viability (Decitabine + Vorinostat; first compound 0.04 µM): 0.269
- relative viability (Decitabine + Vorinostat; first compound 0.1265 µM): 0.263
- relative viability (Decitabine + Vorinostat; first compound 0.4 µM): 0.236
- relative viability (Decitabine + Vorinostat; first compound 1.265 µM): 0.19
- relative viability (Decitabine + Vorinostat; first compound 4 µM): 0.193
- relative viability (Cediranib + Decitabine; first compound 0.04 µM): 0.617
- relative viability (Cediranib + Decitabine; first compound 0.1265 µM): 0.528
- relative viability (Cediranib + Decitabine; first compound 0.4 µM): 0.557
- relative viability (Cediranib + Decitabine; first compound 1.265 µM): 0.555
- relative viability (Cediranib + Decitabine; first compound 4 µM): 0.633
